Laboratory results reported in US20240025884A1 (Dong-A ST Co., Ltd., priority 2022, published 2024).
pIC50: −log10 of the molar value.

Target: GCN2 (Homo sapiens (Human), UniProt Q9P2K8)
Test: GCN2 Biochemical Assay (TR-FRET, GFP-eIF2S1 substrate phosphorylation)
Settings: read-out: IC50 (GCN2 Inhibitory Activity)
Procedure, shortened: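 In-house GCN2 (1.6 nM 2× stock) phosphorylates GFP-eIF2S1 (50 nM 2× stock) with ATP (0.2 mM 2× stock) and tRNA, pH 7.5, 70 min at room temperature; 10-point 3.16-fold compound series. TR-FRET detection with Tb-anti-phospho antibody, 2–3 h, Ex 340/Em 490/520 nm; artifact plate spiked with phospho-substrate.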

Chain of GCN2 (Q9P2K8 whole entry): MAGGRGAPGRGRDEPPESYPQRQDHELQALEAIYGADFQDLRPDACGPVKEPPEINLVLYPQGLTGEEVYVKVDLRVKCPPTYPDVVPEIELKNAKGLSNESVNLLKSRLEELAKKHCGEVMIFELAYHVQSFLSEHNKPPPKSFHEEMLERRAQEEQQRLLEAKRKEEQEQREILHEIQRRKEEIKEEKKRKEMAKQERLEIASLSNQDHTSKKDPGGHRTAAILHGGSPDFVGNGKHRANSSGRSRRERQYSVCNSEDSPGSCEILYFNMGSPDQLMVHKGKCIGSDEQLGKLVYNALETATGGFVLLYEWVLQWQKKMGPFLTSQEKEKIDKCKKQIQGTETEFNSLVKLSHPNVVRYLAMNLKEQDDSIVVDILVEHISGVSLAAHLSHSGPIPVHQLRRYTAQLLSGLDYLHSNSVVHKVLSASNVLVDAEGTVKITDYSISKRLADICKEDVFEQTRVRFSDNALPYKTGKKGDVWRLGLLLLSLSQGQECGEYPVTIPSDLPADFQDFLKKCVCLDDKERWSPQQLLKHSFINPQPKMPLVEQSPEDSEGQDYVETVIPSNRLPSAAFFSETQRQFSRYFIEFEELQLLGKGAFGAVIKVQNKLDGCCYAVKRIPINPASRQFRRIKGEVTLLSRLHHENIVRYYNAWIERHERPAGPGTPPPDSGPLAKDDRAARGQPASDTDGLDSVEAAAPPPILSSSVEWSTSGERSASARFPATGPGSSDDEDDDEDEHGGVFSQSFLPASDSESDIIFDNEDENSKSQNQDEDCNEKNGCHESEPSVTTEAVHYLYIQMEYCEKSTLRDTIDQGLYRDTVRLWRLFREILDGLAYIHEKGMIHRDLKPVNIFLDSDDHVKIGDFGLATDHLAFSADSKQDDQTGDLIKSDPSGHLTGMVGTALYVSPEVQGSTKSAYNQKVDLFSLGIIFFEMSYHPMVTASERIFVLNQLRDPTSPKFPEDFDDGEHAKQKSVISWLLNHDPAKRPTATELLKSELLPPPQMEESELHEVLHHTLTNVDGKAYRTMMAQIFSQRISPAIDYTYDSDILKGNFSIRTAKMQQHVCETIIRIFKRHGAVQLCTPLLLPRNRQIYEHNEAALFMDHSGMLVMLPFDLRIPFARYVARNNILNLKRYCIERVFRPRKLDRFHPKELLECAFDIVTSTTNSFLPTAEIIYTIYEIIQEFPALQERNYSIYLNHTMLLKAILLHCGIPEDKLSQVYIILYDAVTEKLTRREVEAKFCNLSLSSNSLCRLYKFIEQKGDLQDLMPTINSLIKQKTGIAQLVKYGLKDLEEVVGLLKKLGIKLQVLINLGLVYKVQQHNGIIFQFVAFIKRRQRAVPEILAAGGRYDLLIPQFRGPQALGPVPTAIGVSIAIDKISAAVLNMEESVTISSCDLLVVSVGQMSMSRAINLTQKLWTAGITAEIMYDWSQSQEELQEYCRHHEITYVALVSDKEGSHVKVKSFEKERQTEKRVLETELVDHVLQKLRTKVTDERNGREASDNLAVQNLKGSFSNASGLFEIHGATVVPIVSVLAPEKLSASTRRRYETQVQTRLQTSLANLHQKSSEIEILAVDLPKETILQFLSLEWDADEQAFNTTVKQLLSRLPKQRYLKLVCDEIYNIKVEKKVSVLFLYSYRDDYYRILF

pIC50	SMILES
> 8.00	Cc1cnc(Nc2cc(C)n(C)n2)nc1-c1c[nH]c2c(N3Cc4c(NC(=O)Cc5cccc(O)c5)cccc4C3=O)cccc12 [Example 304, N-(2-(3-(2-((1,5-dimethyl-1H-pyrazol-3-yl)amino)-5-methylpyrimidin-4-yl)-1H-indol-7-yl)-1-oxoisoindolin-4-yl)-2-(3-hydroxyphenyl)acetamide]
> 8.00	Cc1cnc(Nc2cc(C)n(C)n2)nc1-c1c[nH]c2c(N3Cc4c(NC(=O)C5CCN(C)CC5)cccc4C3=O)cccc12 [Example 306, N-(2-(3-(2-((1,5-dimethyl-1H-pyrazol-3-yl)amino)-5-methylpyrimidin-4-yl)-1H-indol-7-yl)-1-oxoisoindolin-4-yl)-1-methylpiperidine-4-carboxamide]
> 8.00	Cc1cnc(Nc2cc(C)n(C)n2)nc1-c1c[nH]c2c(N3Cc4c(NC(=O)C5CC=CC5)cccc4C3=O)cccc12 [Example 310, N-(2-(3-(2-((1,5-dimethyl-1H-pyrazol-3-yl)amino)-5-methylpyrimidin-4-yl)-1H-indol-7-yl)-1-oxoisoindolin-4-yl)cyclopent-3-ene-1-carboxamide]
7.00 to 8.00	Cc1cnc(Nc2cc(C)n(C)n2)nc1-c1c[nH]c2c(N3Cc4c(NC(=O)C5CCCCCC5)cccc4C3=O)cccc12 [Example 312, N-(2-(3-(2-((1,5-dimethyl-1H-pyrazol-3-yl)amino)-5-methylpyrimidin-4-yl)-1H-indol-7-yl)-1-oxoisoindolin-4-yl)cycloheptanecarboxamide]
7.00 to 8.00	Cc1cnc(Nc2cc(C)n(C)n2)nc1-c1c[nH]c2c(N3Cc4c(NC(=O)C5Cc6ccccc6C5)cccc4C3=O)cccc12 [Example 314, N-(2-(3-(2-((1,5-dimethyl-1H-pyrazol-3-yl)amino)-5-methylpyrimidin-4-yl)-1H-indol-7-yl)-1-oxoisoindolin-4-yl)-2,3-dihydro-1H-indene-2-carboxamide]
7.00 to 8.00	Cc1cnc(Nc2cc(C)n(C)n2)nc1-c1c[nH]c2c(N3Cc4c(NC(=O)[C@H]5CCNC5)cccc4C3=O)cccc12 [Example 316, (S)-N-(2-(3-(2-((1,5-dimethyl-1H-pyrazol-3-yl)amino)-5-methylpyrimidin-4-yl)-1H-indol-7-yl)-1-oxoisoindolin-4-yl)pyrrolidine-3-carboxamide]
> 8.00	Cc1cnc(Nc2cc(C)n(C)n2)nc1-c1c[nH]c2c(N3Cc4c(NC(=O)C5CCCNC5)cccc4C3=O)cccc12 (centres unmarked) [Example 319, N-(2-(3-(2-((1,5-dimethyl-1H-pyrazol-3-yl)amino)-5-methylpyrimidin-4-yl)-1H-indol-7-yl)-1-oxoisoindolin-4-yl)piperidine-3-carboxamide]
> 8.00	Cc1cnc(Nc2cc(C)n(C)n2)nc1-c1c[nH]c2c(N3Cc4c(NC(=O)c5cnoc5C)cccc4C3=O)cccc12 [Example 321, N-(2-(3-(2-((1,5-dimethyl-1H-pyrazol-3-yl)amino)-5-methylpyrimidin-4-yl)-1H-indol-7-yl)-1-oxoisoindolin-4-yl)-5-methylisoxazole-4-carboxamide]
> 8.00	Cc1nc(C(=O)Nc2cccc3c2CN(c2cccc4c(-c5nc(Nc6cc(C)n(C)n6)ncc5C)c[nH]c24)C3=O)co1 [Example 322, N-(2-(3-(2-((1,5-dimethyl-1H-pyrazol-3-yl)amino)-5-methylpyrimidin-4-yl)-1H-indol-7-yl)-1-oxoisoindolin-4-yl)-2-methyloxazole-4-carboxamide]
7.00 to 8.00	Cc1cc(C(=O)Nc2cccc3c2CN(c2cccc4c(-c5nc(Nc6cc(C)n(C)n6)ncc5C)c[nH]c24)C3=O)no1 [Example 325, N-(2-(3-(2-((1,5-dimethyl-1H-pyrazol-3-yl)amino)-5-methylpyrimidin-4-yl)-1H-indol-7-yl)-1-oxoisoindolin-4-yl)-5-methylisoxazole-3-carboxamide]
> 8.00	Cc1cnc(Nc2cc(C)n(C)n2)nc1-c1c[nH]c2c(N3Cc4c(NC(=O)C5CCOC5)cccc4C3=O)cccc12 (centres unmarked) [Example 326, N-(2-(3-(2-((1,5-dimethyl-1H-pyrazol-3-yl)amino)-5-methylpyrimidin-4-yl)-1H-indol-7-yl)-1-oxoisoindolin-4-yl)tetrahydrofuran-3-carboxamide]
> 8.00	Cc1cnc(Nc2cc(C)n(C)n2)nc1-c1c[nH]c2c(N3Cc4c(NC(=O)C5(C)CCOCC5)cccc4C3=O)cccc12 [Example 328, N-(2-(3-(2-((1,5-dimethyl-1H-pyrazol-3-yl)amino)-5-methylpyrimidin-4-yl)-1H-indol-7-yl)-1-oxoisoindolin-4-yl)-4-methyltetrahydro-2H-pyran-4-carboxamide]

The remaining lines, values behind:

SMILES	pIC50
Cc1cnc(Nc2cc(C)n(C)n2)nc1-c1c[nH]c2c(N3Cc4c(NC(=O)C5CCC(C)CC5)cccc4C3=O)cccc12 (centres unmarked) [Example 303, N-(2-(3-(2-((1,5-dimethyl-1H-pyrazol-3-yl)amino)-5-methylpyrimidin-4-yl)-1H-indol-7-yl)-1-oxoisoindolin-4-yl)-4-methylcyclohexane-1-carboxamide]	> 8.00
Cc1cnc(Nc2cc(C)n(C)n2)nc1-c1c[nH]c2c(N3Cc4c(NC(=O)Cc5ccccc5)cccc4C3=O)cccc12 [Example 305, N-(2-(3-(2-((1,5-dimethyl-1H-pyrazol-3-yl)amino)-5-methylpyrimidin-4-yl)-1H-indol-7-yl)-1-oxoisoindolin-4-yl)-2-phenylacetamide]	> 8.00
Cc1cnc(Nc2cc(C)n(C)n2)nc1-c1c[nH]c2c(N3Cc4c(NC(=O)C5CCCN(C)C5)cccc4C3=O)cccc12 (centres unmarked) [Example 307, N-(2-(3-(2-((1,5-dimethyl-1H-pyrazol-3-yl)amino)-5-methylpyrimidin-4-yl)-1H-indol-7-yl)-1-oxoisoindolin-4-yl)-1-methylpiperidine-3-carboxamide]	> 8.00
Cc1cnc(Nc2cc(C)n(C)n2)nc1-c1c[nH]c2c(N3Cc4c(NC(=O)C5CCC(=O)N5)cccc4C3=O)cccc12 (centres unmarked) [Example 308, N-(2-(3-(2-((1,5-dimethyl-1H-pyrazol-3-yl)amino)-5-methylpyrimidin-4-yl)-1H-indol-7-yl)-1-oxoisoindolin-4-yl)-5-oxopyrrolidine-2-carboxamide]	> 8.00
Cc1cnc(Nc2cc(C)n(C)n2)nc1-c1c[nH]c2c(N3Cc4c(NC(=O)C5CC=CCC5)cccc4C3=O)cccc12 (centres unmarked) [Example 309, N-(2-(3-(2-((1,5-dimethyl-1H-pyrazol-3-yl)amino)-5-methylpyrimidin-4-yl)-1H-indol-7-yl)-1-oxoisoindolin-4-yl)cyclohex-3-ene-1-carboxamide]	7.00 to 8.00
Cc1cnc(Nc2cc(C)n(C)n2)nc1-c1c[nH]c2c(N3Cc4c(NC(=O)C5(C)CC=CC5)cccc4C3=O)cccc12 [Example 311, N-(2-(3-(2-((1,5-dimethyl-1H-pyrazol-3-yl)amino)-5-methylpyrimidin-4-yl)-1H-indol-7-yl)-1-oxoisoindolin-4-yl)-1-methylcyclopent-3-ene-1-carboxamide]	7.00 to 8.00
Cc1cnc(Nc2cc(C)n(C)n2)nc1-c1c[nH]c2c(N3Cc4c(NC(=O)N5CCNC5=O)cccc4C3=O)cccc12 [Example 313, N-(2-(3-(2-((1,5-dimethyl-1H-pyrazol-3-yl)amino)-5-methylpyrimidin-4-yl)-1H-indol-7-yl)-1-oxoisoindolin-4-yl)-2-oxoimidazolidine-1-carboxamide]	> 8.00
Cc1cnc(Nc2cc(C)n(C)n2)nc1-c1c[nH]c2c(N3Cc4c(NC(=O)[C@@H]5CCNC5)cccc4C3=O)cccc12 [Example 315, (R)-N-(2-(3-(2-((1,5-dimethyl-1H-pyrazol-3-yl)amino)-5-methylpyrimidin-4-yl)-1H-indol-7-yl)-1-oxoisoindolin-4-yl)pyrrolidine-3-carboxamide]	> 8.00
Cc1cnc(Nc2cc(C)n(C)n2)nc1-c1c[nH]c2c(N3Cc4c(NC(=O)[C@@H]5CCC(=O)N5)cccc4C3=O)cccc12 [Example 317, (S)-N-(2-(3-(2-((1,5-dimethyl-1H-pyrazol-3-yl)amino)-5-methylpyrimidin-4-yl)-1H-indol-7-yl)-1-oxoisoindolin-4-yl)-5-oxopyrrolidine-2-carboxamide]	> 8.00
Cc1cnc(Nc2cc(C)n(C)n2)nc1-c1c[nH]c2c(N3Cc4c(NC(=O)[C@H]5CCC(=O)N5)cccc4C3=O)cccc12 [Example 318, (R)-N-(2-(3-(2-((1,5-dimethyl-1H-pyrazol-3-yl)amino)-5-methylpyrimidin-4-yl)-1H-indol-7-yl)-1-oxoisoindolin-4-yl)-5-oxopyrrolidine-2-carboxamide]	> 8.00
Cc1cnc(Nc2cc(C)n(C)n2)nc1-c1c[nH]c2c(N3Cc4c(NC(=O)C5CCC(=O)CC5)cccc4C3=O)cccc12 [Example 320, N-(2-(3-(2-((1,5-dimethyl-1H-pyrazol-3-yl)amino)-5-methylpyrimidin-4-yl)-1H-indol-7-yl)-1-oxoisoindolin-4-yl)-4-oxocyclohexane-1-carboxamide]	> 8.00
Cc1cnc(Nc2cc(C)n(C)n2)nc1-c1c[nH]c2c(N3Cc4c(NC(=O)c5cnco5)cccc4C3=O)cccc12 [Example 323, N-(2-(3-(2-((1,5-dimethyl-1H-pyrazol-3-yl)amino)-5-methylpyrimidin-4-yl)-1H-indol-7-yl)-1-oxoisoindolin-4-yl)oxazole-5-carboxamide]	> 8.00
Cc1cnc(Nc2cc(C)n(C)n2)nc1-c1c[nH]c2c(N3Cc4c(NC(=O)c5ccon5)cccc4C3=O)cccc12 [Example 324, N-(2-(3-(2-((1,5-dimethyl-1H-pyrazol-3-yl)amino)-5-methylpyrimidin-4-yl)-1H-indol-7-yl)-1-oxoisoindolin-4-yl)isoxazole-3-carboxamide]	7.00 to 8.00
Cc1cnc(Nc2cc(C)n(C)n2)nc1-c1c[nH]c2c(N3Cc4c(NC(=O)C5CCCOC5)cccc4C3=O)cccc12 (centres unmarked) [Example 327, N-(2-(3-(2-((1,5-dimethyl-1H-pyrazol-3-yl)amino)-5-methylpyrimidin-4-yl)-1H-indol-7-yl)-1-oxoisoindolin-4-yl)tetrahydro-2H-pyran-3-carboxamide]	> 8.00
